The values below come from patent US20030153731A1, “Endothelial cell-leukocyte adhesion molecules (ELAMs) and molecules involved in leukocyte adhesion (MILAs)” (priority 1989, published 2003).

The target of experiment [1] is T1, 1,3-fucosyl transferase in extracts from CHO cells transfected with clone 7.2 (Homo sapiens, UniProt P22083).
T1 construct: expressed in transfected cells; host or cells: CHO cells transfected with clone 7.2; Triton X-100 lysate
T1 sequence (P22083 1-405 isoform P22083-2): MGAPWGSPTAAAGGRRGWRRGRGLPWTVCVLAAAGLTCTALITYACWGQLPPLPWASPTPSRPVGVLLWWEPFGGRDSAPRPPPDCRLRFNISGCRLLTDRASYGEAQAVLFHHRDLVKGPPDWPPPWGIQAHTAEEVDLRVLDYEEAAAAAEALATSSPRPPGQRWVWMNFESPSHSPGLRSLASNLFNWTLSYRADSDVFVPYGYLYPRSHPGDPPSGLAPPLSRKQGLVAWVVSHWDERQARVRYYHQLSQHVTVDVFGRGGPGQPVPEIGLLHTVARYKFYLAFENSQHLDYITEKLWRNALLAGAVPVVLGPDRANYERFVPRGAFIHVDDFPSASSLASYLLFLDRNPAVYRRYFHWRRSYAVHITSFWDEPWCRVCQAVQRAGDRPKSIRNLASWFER
In words: fucosyl transferase enzyme assay: linking 14C-fucose to acceptor molecules. Format: biochemical. Conditions: for Efficiency of Fucosylation: enzyme freshly produced from transfected CHO cells, 1 hour at 37° C; for linking of fucose to acceptor by the induced enzyme: extract of CHO cells transfected with clone 7.2. The protocol: The assays tested the ability of the enzyme to link radioactively labelled fucose to an acceptor molecule. We performed the assays as follows.
We prepared assay samples containing 10 μl enzyme, 8 μl cocktail and 2 μl 10×acceptor. We prepared the enzyme by isolating about 1.5 million CHO cells transfected with clone 7.2 and lysing them by sonication for 15 seconds in 150 μl ice-cold 1% Triton X-100 in water. The cocktail contained 75 μM ^14C-GDP fucose, 100 mM ATP, 500 mM L-fucose, 1 M MnCl2 and 1 M cacodylate at pH 6.2. 10×acceptor contained, variously, 200 mM LacNAc, Lac-N-biose, or lactose, 250 mM phenyl-β-D-galactoside, or 50 mM 2′-fucosyllactose. We incubated the assay samples for 1 hour at 37° C. We stopped the reaction by addition of 20 μl ethanol. We diluted the sample with 560 μl water and centrifuged in an EPPENDORF centrifuge for 5 minutes at high speed.
We had prepared a DOWEX 1×2-400 column (Sigma Chemical Co.) to separate the unconverted ^14C fucose-GDP from the converted. We loaded the matrix into a large column and washed it with 10 volumes of iN NaOH, followed by 5 volumes of water, followed by 10 volumes of 5% concentrated formic acid. Then we repeated this wash cycle. We used this material to create small columns of 0.4 ml. We prepared the small columns for use by washing them with 10 volumes of water.
We loaded 200 μl of the sample onto the small column, collected the eluate, rinsed with 2 ml water and collected it into the eluate. We determined the radioactivity of this eluate by scintillation counting.

In the next experiment the test system is HL-60 cells; RAMOS cells. In words: cell binding to rsELAM1-coated plates. The format is cell-based, human. How it is done: To a 6 cm diameter Petri dish of bacteriologic plastic (e.g., Falcon 110070) we added 2.5 ml of 50 mM Tris buffer, pH 9.5. To this we added 10 μg of pure rsELAM1. We incubated the plate for 60 minutes at room temperature to allow the rsELAM1 to bind to the plate. Then we aspirated the medium and replaced it with PBS containing 10 mg/ml bovine serum albumin. We incubated the plates overnight at 40 in this solution to block remaining protein binding sites on the plates. We warmed the plates to room temperature, washed them with medium containing 10% fetal calf serum, and incubated them with 2 ml of cells (2×10^6 ml^−1) for 20 minutes. We aspirated the medium and washed the plates twice with 3 ml each of medium (RPMI 1640 with 10% serum). Then we examined the plates by microscopy.
A second assay would test the ability of a small molecule to inhibit cell binding to ELAM itself. We have developed such an assay with rsELAM1 which works in 96 well microtiter plates. These plates, made of bacteriologic plastic (e.g. Linbro/Titertek #76-232-050), are incubated with 0.5 μg per well of rsELAM1 in 50 μl of 15 mM sodium carbonate/35 mM sodium bicarbonate, pH 9.2, overnight at 40. The plates are then blocked for one hour at room temperature with PBS containing 10 mg/ml of bovine serum albumin, and then adhesion assays performed as described in Example VIII using, e.g., HL-60 cells, 2×10^6/ml, 50 μl per well. Under these conditions HL-60 cells bind well to rsELAM1, providing a convenient microassay for screening. One would identify inhibitors by their ability to inhibit HL-60 binding to the plate. Alternatively, one could use an ELAM ligand in this assay, using as the probe a cell line that stably expresses an ELAM.

On to `CC(=O)N[C@@H]1[C@@H](O[C@@H]2O[C@H](CO)[C@H](O)[C@H](O)[C@H]2O)[C@H](O)[C@@H](CO)O[C@@H]1O` [Lac-N-Biose, Lac-N-biose], for which, in experiment [1], the “Efficiency of Fucosylation” value was 76 picomoles/mg Total protein · h and the “linking of fucose to acceptor by the induced enzyme” value (“linking of fucose to acceptor” below) is on record as “did not link fucose”.

With `CC(=O)N[C@H]1C(O)O[C@H](CO)[C@@H](O[C@@H]2O[C@H](CO)[C@H](O)[C@H](O)[C@H]2O)[C@@H]1O` (some centres unmarked) [LacNAc], in experiment [1], the “Efficiency of Fucosylation” value is listed as 1110 picomoles/mg Total protein · h and the “linking of fucose to acceptor” value is given as “linked fucose”.

Turning to `OC[C@H]1O[C@@H](O[C@H]2[C@H](O)[C@@H](O)C(O)O[C@@H]2CO)[C@H](O)[C@@H](O)[C@H]1O` (some centres unmarked) [Lactose, lactose], in experiment [1], the “Efficiency of Fucosylation” value is 290 picomoles/mg Total protein · h and the “linking of fucose to acceptor” value was “linked fucose”.

Consider `OC[C@H]1O[C@@H](Oc2ccccc2)[C@H](O)[C@@H](O)[C@H]1O` [PhβDgal, phenyl-β-D-galactoside], for which, in experiment [1], the “Efficiency of Fucosylation” value was “Not detectable” and the “linking of fucose to acceptor” value is recorded as “did not link fucose”.

B1: rsELAM1: portion of the extracellular domain of ELAM1 encoded by nucleotides 141 to 1790 of FIG. 1 (protein, UniProt P16581 22-556, looked up)
extracellular domain: WSYNTSTEAMTYDEASAYCQQRYTHLVAIQNKEEIEYLNSILSYSPSYYWIGIRKVNNVWVWVGTQKPLTEEAKNWAPGEPNNRQKDEDCVEIYIKREKDVGMWNDERCSKKKLALCYTAACTNTSCSGHGECVETINNYTCKCDPGFSGLKCEQIVNCTALESPEHGSLVCSHPLGNFSYNSSCSISCDRGYLPSSMETMQCMSSGEWSAPIPACNVVECDAVTNPANGFVECFQNPGSFPWNTTCTFDCEEGFELMGAQSLQCTSSGNWDNEKPTCKAVTCRAVRQPQNGSVRCSHSPAGEFTFKSSCNFTCEEGFMLQGPAQVECTTQGQWTQQIPVCEAFQCTALSNPERGYMNCLPSASGSFRYGSSCEFSCEQGFVLKGSKRLQCGPTGEWDNEKPTCEAVRCDAVHQPPKGLVRCAHSPIGEFTYKSSCAFSCEEGFELHGSTQLECTSQGQWTEEVPSCQVVKCSSLAVPGKINMSCSGEPVFGTVCKFACPEGWTLNGSAARTCGATGHWSGLLPTCEAPTESNIP
modifications: extracellular domain
Turning to B1, the “binding of HL-60 cells to rsELAM1 in 96 well microtiter plates” value with HL-60 cells; RAMOS cells (0.5 μg per well rsELAM1, HL-60 2×10^6/ml, 50 μl per well) is listed as “bind well”. For the same molecule, in the experiment on HL-60 cells; RAMOS cells (6 cm Petri dish, 10 μg rsELAM1), the “binding of HL-60 cells to rsELAM1-coated plates” value is “bind to rsELAM1-coated plates” and the “binding of RAMOS cells to rsELAM1-coated plates” value was “do not bind to these plates”.
